US20130158362A1 (INFACARE PHARMACEUTICAL CORPORATION, priority 2011, published 2013)

Tested on: total serum bilirubin (TSB)
Assay: Phase 2b trial: total serum bilirubin (TSB), adjusted and unadjusted, change from baseline
Type: in vivo, human
Design: total serum bilirubin / total serum bilirubin, Delta (change from baseline) / Change from baseline of total serum bilirubin: unit not given here
Conditions: for total serum bilirubin / total serum bilirubin, Delta (change from baseline): 48 hours, preliminary data; for change from baseline in adjusted TSB, LS mean (SEM) / change from baseline in adjusted TSB, LS mean difference versus placebo / change from baseline in unadjusted TSB, LS Mean (SEM) / change from baseline in unadjusted TSB, LS Mean Difference versus placebo / change from baseline in adjusted TSB, LS mean (SEM) (primary endpoint): ANCOVA; for change from baseline in adjusted TSB, LS mean difference versus placebo, MMRM / change from baseline in adjusted TSB, LS means (SEM), MMRM: observed case
Procedure: Three cohorts of subjects were recruited. This clinical study was designed to evaluate safety and efficacy parameters in each cohort.
Scheduled assessments (including TSB) occurred before treatment and at 0.75 and 2 hours (or 1.5 and 3 hours, depending on PK blood sampling assignment); 6, 12, 24, 48, and 72 hours; and 14 and 30 (except TSB) days after treatment or early termination.
The primary efficacy endpoint was the change in adjusted TSB from baseline to 48 hours after treatment. The adjusted TSB was a calculation of the percentage variance of the TSB level from the age specific threshold for PT initiation per the AAP Guidelines, i.e., an indication of the distance below the PT threshold by time.
The Secondary Efficacy Endpoints were the change from baseline in unadjusted TSB at 48 hours after treatment, change from baseline in adjusted and unadjusted TSB at various other time points after treatment, percent change from baseline in unadjusted TSB, proportion of subjects who require PT/exchange transfusion (ET), time to PT/ET, duration of PT and time to hospital discharge.
Intent-to-treat population (ITT): Defined as all subjects who were randomly assigned treatment in the clinical study, had received IMP, and had at least 1 post baseline TSB measurement during the first 48 hours after treatment. Subjects were summarized based on randomized treatment.
Analysis of Efficacy Parameters: The primary efficacy analysis applied the analysis of covariance (ANCOVA) method to determine if there was a significant difference between treatment groups in change in adjusted TSB levels from baseline to 48 hours post baseline after controlling for the effects of gestational age and adjusted baseline TSB levels. If assumptions of ANCOVA appeared to be violated, a Wilcoxon rank-sum test could be performed instead. Time-to-event variables were analyzed using the Kaplan-Meier method, and Kaplan-Meier survival curves were presented.

[1] = 1.5 mg/kg, 6 hrs, unadjusted TSB, ITT Population
[2] = 1.5 mg/kg, 12 hrs, unadjusted TSB, ITT Population
[3] = 1.5 mg/kg, 24 hrs, unadjusted TSB, ITT Population
[4] = 1.5 mg/kg, 48 hrs, unadjusted TSB, ITT Population
[5] = 1.5 mg/kg, baseline, PP Population
[6] = 1.5 mg/kg, baseline, unadjusted TSB, ITT Population
[7] = 3.0 mg/kg IM, 48 h/early termination, ITT, LOCF

With “tin IV mesoporphyrin IX dichloride [Stannsoporfin]” the “6 hrs TSB, Mean (SD)” value [1] was 9.09 (2.175) mg/dL, the “6 hrs TSB, Min” value [1] was 5.1 mg/dL and the “12 hrs Percent Change from Baseline in TSB, Max” value [2] was 73.2%. The “12 hrs Percent Change from Baseline in TSB, Mean (SD)” value [2] was 29.91 (21.467) %, the “12 hrs Percent Change from Baseline in TSB, Min” value [2] was −12.8% and the “12 hrs TSB, Max” value [2] was 14.3 mg/dL. For the same substance, the “12 hrs TSB, Mean (SD)” value [2] was 9.82 (2.599) mg/dL, the “12 hrs TSB, Min” value [2] was 5.6 mg/dL and the “24 hrs Percent Change from Baseline in TSB, Max” value [3] was 66.1%. The “24 hrs Percent Change from Baseline in TSB, Mean (SD)” value [3] was 30.23 (27.126) %, the “24 hrs Percent Change from Baseline in TSB, Median” value [3] was 38.20% and the “24 hrs Percent Change from Baseline in TSB, Min” value [3] was −33.3%. The “24 hrs TSB, Max” value [3] was 12.2 mg/dL, the “24 hrs TSB, Mean (SD)” value [3] was 9.61 (2.566) mg/dL and the “24 hrs TSB, Min” value [3] was 5.2 mg/dL. For the same substance, the “48 hrs Percent Change from Baseline in TSB, Max” value [4] was 82.3%, the “48 hrs Percent Change from Baseline in TSB, Mean (SD)” value [4] was 32.71 (37.298) % and the “48 hrs Percent Change from Baseline in TSB, Min” value [4] was −57.7%. For the same substance, the “48 hrs TSB, Max” value [4] was 13.5 mg/dL, the “48 hrs TSB, Mean (SD)” value [4] was 9.85 (3.208) mg/dL and the “48 hrs TSB, Min” value [4] was 3.3 mg/dL. The “mean TSB levels” value (1.5 mg/kg, 14 days after treatment (text, not LOCF table)) was 3.06 mg/dL, the “Baseline unadjusted TSB, Max” value [5] was 12.0 mg/dL and the “Baseline unadjusted TSB, Mean (SD)” value [5] was 7.52 (2.030) mg/dL. The “Baseline unadjusted TSB, Median” value [5] was 7.35 mg/dL, the “Baseline unadjusted TSB, Min” value [5] was 4.3 mg/dL and the “Baseline TSB, Max” value [6] was 12.0 mg/dL. For the same substance, the “Baseline TSB, Mean (SD)” value [6] was 7.59 (1.816) mg/dL, the “Baseline TSB, Min” value [6] was 4.3 mg/dL and the total serum bilirubin (3.0 mg/kg IM (N = 13), treated per protocol) was 10.53 ± 2.9. The “adjusted TSB, Mean (SD)” value (3.0 mg/kg IM, 6 h, ITT, LOCF) was −13.20 (13.118) %, the “change from baseline in adjusted TSB, Mean (SD)” value (3.0 mg/kg IM, 6 h, ITT, LOCF) was 2.72 (7.274) % and the “change from baseline in adjusted TSB, Median” value (3.0 mg/kg IM, 6 h, ITT, LOCF) was 2.10%. The “change from baseline in unadjusted TSB, Mean (SD)” value (3.0 mg/kg IM, 6 h, ITT, LOCF) was 1.53 (0.762) mg/dL, the “change from baseline in unadjusted TSB, Median” value (3.0 mg/kg IM, 6 h, ITT, LOCF) was 1.35 mg/dL and the “unadjusted TSB, Mean (SD)” value (3.0 mg/kg IM, 6 h, ITT, LOCF) was 9.74 (1.730) mg/dL. The “unadjusted TSB, Median” value (3.0 mg/kg IM, 6 h, ITT, LOCF) was 9.90 mg/dL, the “change from baseline in adjusted TSB, LS mean (SEM)” value (3.0 mg/kg IM, 6 h, ITT, LOCF) was 2.57 (2.186) % and the “change from baseline in adjusted TSB, LS mean difference versus placebo” value (3.0 mg/kg IM, 6 h, ITT, LOCF) was −1.82%. For the same substance, the “change from baseline in unadjusted TSB, LS Mean (SEM)” value (3.0 mg/kg IM, 6 h, ITT, LOCF) was 1.39 (0.254) mg/dL, the “change from baseline in unadjusted TSB, LS Mean Difference versus placebo” value (3.0 mg/kg IM, 6 h, ITT, LOCF) was -0.20 mg/dL and the “change from baseline in adjusted TSB, LS mean difference versus placebo, MMRM” value (from here on “change … LS mean difference versus placebo, MMRM”) (3.0 mg/kg IM, 6 h, ITT) was −1.69%. For the same substance, the “change from baseline in adjusted TSB, LS means (SEM), MMRM” value (“change from baseline … (SEM), MMRM” for short) (3.0 mg/kg IM, 6 h, ITT) was 2.68 (2.252) %, the “adjusted TSB, Mean (SD)” value (3.0 mg/kg IM, 12 h, ITT, LOCF) was −15.06 (13.787) % and the “change from baseline in adjusted TSB, Mean (SD)” value (3.0 mg/kg IM, 12 h, ITT, LOCF) was 0.87 (9.503) %. The “change from baseline in adjusted TSB, Median” value (3.0 mg/kg IM, 12 h, ITT, LOCF) was 1.55%, the “change from baseline in unadjusted TSB, Mean (SD)” value (3.0 mg/kg IM, 12 h, ITT, LOCF) was 2.05 (1.004) mg/dL and the “change from baseline in unadjusted TSB, Median” value (3.0 mg/kg IM, 12 h, ITT, LOCF) was 1.90 mg/dL. The “unadjusted TSB, Mean (SD)” value (3.0 mg/kg IM, 12 h, ITT, LOCF) was 10.26 (1.748) mg/dL, the “unadjusted TSB, Median” value (3.0 mg/kg IM, 12 h, ITT, LOCF) was 10.90 mg/dL and the “change from baseline in adjusted TSB, LS mean (SEM)” value (3.0 mg/kg IM, 12 h, ITT, LOCF) was 2.64 (3.209) %. The “change from baseline in adjusted TSB, LS mean difference versus placebo” value (3.0 mg/kg IM, 12 h, ITT, LOCF) was −4.50%, the “change from baseline in unadjusted TSB, LS Mean (SEM)” value (3.0 mg/kg IM, 12 h, ITT, LOCF) was 2.06 (0.393) mg/dL and the “change from baseline in unadjusted TSB, LS Mean Difference versus placebo” value (3.0 mg/kg IM, 12 h, ITT, LOCF) was -0.54 mg/dL. For the same substance, the “change … LS mean difference versus placebo, MMRM” value (3.0 mg/kg IM, 12 h, ITT) was −5.14%, the “change from baseline … (SEM), MMRM” value (3.0 mg/kg IM, 12 h, ITT) was 0.83 (2.821) % and the “adjusted TSB, Mean (SD)” value (3.0 mg/kg IM, 24 h, ITT, LOCF) was −24.46 (11.302) %. The “change from baseline in adjusted TSB, Mean (SD)” value (3.0 mg/kg IM, 24 h, ITT, LOCF) was −8.53 (16.045) %, the “change from baseline in adjusted TSB, Median” value (3.0 mg/kg IM, 24 h, ITT, LOCF) was −3.10% and the “change from baseline in unadjusted TSB, Mean (SD)” value (3.0 mg/kg IM, 24 h, ITT, LOCF) was 1.85 (1.596) mg/dL. The “change from baseline in unadjusted TSB, Median” value (3.0 mg/kg IM, 24 h, ITT, LOCF) was 2.08 mg/dL, the “unadjusted TSB, Mean (SD)” value (3.0 mg/kg IM, 24 h, ITT, LOCF) was 10.06 (1.757) mg/dL and the “unadjusted TSB, Median” value (3.0 mg/kg IM, 24 h, ITT, LOCF) was 10.45 mg/dL. The “change from baseline in adjusted TSB, LS mean (SEM)” value (3.0 mg/kg IM, 24 h, ITT, LOCF) was −9.21 (4.598) %, the “change from baseline in adjusted TSB, LS mean difference versus placebo” value (3.0 mg/kg IM, 24 h, ITT, LOCF) was −9.12% and the “change from baseline in unadjusted TSB, LS Mean (SEM)” value (3.0 mg/kg IM, 24 h, ITT, LOCF) was 1.67 (0.578) mg/dL. For the same substance, the “change from baseline in unadjusted TSB, LS Mean Difference versus placebo” value (3.0 mg/kg IM, 24 h, ITT, LOCF) was -1.08 mg/dL, the “change … LS mean difference versus placebo, MMRM” value (3.0 mg/kg IM, 24 h, ITT) was −7.01% and the “change from baseline … (SEM), MMRM” value (3.0 mg/kg IM, 24 h, ITT) was −8.57 (3.894) %. For the same substance, the “adjusted TSB, Mean (SD)” value [7] was −31.80 (18.214) %, the “adjusted TSB, Median” value [7] was −24.75% and the “change from baseline in adjusted TSB, Mean (SD)” value (3.0 mg/kg IM, 48 h, ITT, LOCF) was −15.88 (21.406) %. The “change from baseline in adjusted TSB, Median” value (3.0 mg/kg IM, 48 h, ITT, LOCF) was −9.05%, the “change from baseline in unadjusted TSB, Mean (SD)” value (3.0 mg/kg IM, 48 h, ITT, LOCF) was 2.47 (2.703) mg/dL and the “change from baseline in unadjusted TSB, Median” value (3.0 mg/kg IM, 48 h, ITT, LOCF) was 2.94 mg/dL. The “unadjusted TSB, Mean (SD)” value (3.0 mg/kg IM, 48 h, ITT, LOCF) was 10.68 (2.956) mg/dL, the “unadjusted TSB, Median” value (3.0 mg/kg IM, 48 h, ITT, LOCF) was 11.65 mg/dL and the “change from baseline in adjusted TSB, LS mean (SEM) (primary endpoint)” value (3.0 mg/kg IM, 48 h, ITT, LOCF) was −11.60 (5.612) %. For the same substance, the “change from baseline in adjusted TSB, LS mean difference versus placebo” value (3.0 mg/kg IM, 48 h, ITT, LOCF) was −10.02%, the “change from baseline in unadjusted TSB, LS Mean (SEM)” value (3.0 mg/kg IM, 48 h, ITT, LOCF) was 2.90 (0.886) mg/dL and the “change from baseline in unadjusted TSB, LS Mean Difference versus placebo” value (3.0 mg/kg IM, 48 h, ITT, LOCF) was -1.34 mg/dL. The “change from baseline in adjusted TSB, LS mean (SEM) (primary endpoint)” value (3.0 mg/kg IM, 48 h, ITT, LOCF, listed as stannsoporfin) was 11.6%, the “change … LS mean difference versus placebo, MMRM” value (3.0 mg/kg IM, 48 h, ITT) was −9.24% and the “change from baseline … (SEM), MMRM” value (3.0 mg/kg IM, 48 h, ITT) was −15.92 (4.919) %. For the same substance, the total serum bilirubin (3.0 mg/kg IM, intent to treat) was 10.68 ± 3.0, the “total serum bilirubin, Delta (change from baseline)” value (3.0 mg/kg IM, intent to treat) was 2.47 ± 2.7 and the “total serum bilirubin, Delta (change from baseline)” value (3.0 mg/kg IM, treated per protocol) was 2.20 ± 2.9. For the same substance, the “adjusted TSB, Mean (SD)” value (3.0 mg/kg IM, 72 h/early termination, ITT, LOCF) was −42.64 (21.640) %, the “change from baseline in adjusted TSB, Mean (SD)” value (3.0 mg/kg IM, 72 h, ITT, LOCF) was −26.72 (24.245) % and the “change from baseline in adjusted TSB, Median” value (3.0 mg/kg IM, 72 h, ITT, LOCF) was −17.30%.
